Measurements reported in patent US5773421A, “Antifungal fusacandins” (Abbott Laboratories, priority 1995, dated 1998).
≈ marks a conversion by molar mass, not a printed value.

Assays:
Experiment in all cases: MIC by agar dilution method
Type in all cases: cell-based
Candida albicans 579a = settings: Table 6c; II Candida albicans 579a; agar dilution; read-out: MIC II
Experimental: (§1) Minimal inhibitory concentrations (MICs) were determined by an agar dilution method. The test compounds were serially diluted in MeOH and 0.2 mL portions were mixed with 20 mL of molten, cooled Sabouraud dextrose agar (Difco). Yeast cell inoculum was prepared by growing cultures on Sabouraud dextrose agar for 18 hours at 32° C. and suspending the cells in phosphate buffered saline. Filamentous fungi were grown under the same conditions for 4 days to obtain spores. The inoculum level for all cultures was adjusted to 10^4 cells using a Petroff-Hauser cell counter. The glutarimide antifungal compounds cycloheximide or amphotericin B were used as a control. Inoculated test plates were incubated at 32° C. and examined after 20 hours.

[1] = system: Candida albicans ATCC 10231; settings: ATCC10231; Table 6c; I Candida albicans ATCC 10231; agar dilution; read-out: MIC I
Experimental: as §1

[2] = system: Candida albicans ATCC 38247; settings: ATCC38247; Table 6c; IV Candida albicans ATCC 38247; agar dilution; read-out: MIC IV
Experimental: as §1

[3] = system: Candida albicans ATCC 62376; settings: ATCC62376; Table 6c; V Candida albicans ATCC 62376; agar dilution; read-out: MIC V
Experimental: as §1

Candida albicans CCH 442 = settings: CCH442; Table 6c, 3rd value column (head printed II); III Candida albicans CCH 442; agar dilution; read-out: MIC II
Experimental: as §1

MIC (Candida albicans 579a) | MIC [1] | MIC [2] | MIC [3] | MIC (Candida albicans CCH 442) | SMILES
1.56 µg/mL (≈ 1.44 µM) | 0.78 µg/mL (≈ 0.72 µM) | 3.12 µg/mL (≈ 2.88 µM) | 0.78 µg/mL (≈ 0.72 µM) | 0.78 µg/mL (≈ 0.72 µM) | CCCCC/C=C/C=C/[C@@H](O)C/C=C/C=C/C(=O)O[C@@H]1[C@@H](O)[C@H](c2c(O)cc(O)cc2CO)O[C@H](CO)[C@H]1O[C@@H]1O[C@H](COC(=O)c2ccc(-c3ccc(OC)cc3)cc2)[C@H](O)[C@H](O)[C@H]1O[C@@H]1O[C@H](CO)[C@H](O)[C@H](O)[C@H]1O [Example 32]
0.78 µg/mL (≈ 0.707 µM) | 1.56 µg/mL (≈ 1.41 µM) | 1.56 µg/mL (≈ 1.41 µM) | 1.56 µg/mL (≈ 1.41 µM) | 1.56 µg/mL (≈ 1.41 µM) | CCCCC/C=C/C=C/[C@@H](O)C/C=C/C=C/C(=O)O[C@@H]1[C@@H](O)[C@H](c2c(O)cc(O)cc2CO)O[C@H](CO)[C@H]1O[C@@H]1O[C@H](COC(=O)c2ccc(-c3ccc4ccccc4c3)cc2)[C@H](O)[C@H](O)[C@H]1O[C@@H]1O[C@H](CO)[C@H](O)[C@H](O)[C@H]1O [Example 29]
0.78 µg/mL (≈ 0.741 µM) | 0.78 µg/mL (≈ 0.741 µM) | 1.56 µg/mL (≈ 1.48 µM) | 0.78 µg/mL (≈ 0.741 µM) | 0.78 µg/mL (≈ 0.741 µM) | CCCCC/C=C/C=C/[C@@H](O)C/C=C/C=C/C(=O)O[C@@H]1[C@@H](O)[C@H](c2c(O)cc(O)cc2CO)O[C@H](CO)[C@H]1O[C@@H]1O[C@H](COC(=O)c2ccc(-c3ccccc3)cc2)[C@H](O)[C@H](O)[C@H]1O[C@@H]1O[C@H](CO)[C@H](O)[C@H](O)[C@H]1O [Example 30]

The next lines start with the compound.

SMILES | MIC (Candida albicans 579a) | MIC [1] | MIC [2] | MIC [3] | MIC (Candida albicans CCH 442)
CCCCC/C=C/C=C/[C@@H](O)C/C=C/C=C/C(=O)O[C@@H]1[C@@H](O)[C@H](c2c(O)cc(O)cc2CO)O[C@H](CO)[C@H]1O[C@@H]1O[C@H](COC(=O)c2ccc(-c3ccc(CC)cc3)cc2)[C@H](O)[C@H](O)[C@H]1O[C@@H]1O[C@H](CO)[C@H](O)[C@H](O)[C@H]1O [Example 21] | 0.2 µg/mL (≈ 0.185 µM) | 0.78 µg/mL (≈ 0.721 µM) | 0.78 µg/mL (≈ 0.721 µM) | 0.39 µg/mL (≈ 0.361 µM) | 0.78 µg/mL (≈ 0.721 µM)
CCCCC/C=C/C=C/[C@@H](O)C/C=C/C=C/C(=O)O[C@@H]1[C@@H](O)[C@H](c2c(O)cc(O)cc2CO)O[C@H](CO)[C@H]1O[C@@H]1O[C@H](COC(=O)c2cccc(-c3ccc(-c4ccccc4)cc3)c2)[C@H](O)[C@H](O)[C@H]1O[C@@H]1O[C@H](CO)[C@H](O)[C@H](O)[C@H]1O [Example 34] | 3.12 µg/mL (≈ 2.76 µM) | 6.25 µg/mL (≈ 5.53 µM) | 6.25 µg/mL (≈ 5.53 µM) | 3.12 µg/mL (≈ 2.76 µM) | 6.25 µg/mL (≈ 5.53 µM)
CCCCC/C=C/C=C/[C@@H](O)C/C=C/C=C/C(=O)O[C@@H]1[C@@H](O)[C@H](c2c(O)cc(O)cc2CO)O[C@H](CO)[C@H]1O[C@@H]1O[C@H](COC(=O)CCCCCCCCC)[C@H](O)[C@H](O)[C@H]1O[C@@H]1O[C@H](CO)[C@H](O)[C@H](O)[C@H]1O [Example 13] | 12.5 µg/mL (≈ 12.2 µM) | 12.5 µg/mL (≈ 12.2 µM) | 12.5 µg/mL (≈ 12.2 µM) | 12.5 µg/mL (≈ 12.2 µM) | 6.25 µg/mL (≈ 6.08 µM)
CCCCC/C=C/C=C/[C@@H](O)C/C=C/C=C/C(=O)O[C@@H]1[C@@H](O)[C@H](c2c(O)cc(O)cc2CO)O[C@H](CO)[C@H]1O[C@@H]1O[C@H](COC(=O)c2ccccc2)[C@H](O)[C@H](O)[C@H]1O[C@@H]1O[C@H](CO)[C@H](O)[C@H](O)[C@H]1O [Example 14] | 6.25 µg/mL (≈ 6.4 µM) | 12.5 µg/mL (≈ 12.8 µM) | 6.25 µg/mL (≈ 6.4 µM) | 12.5 µg/mL (≈ 12.8 µM) | 12.5 µg/mL (≈ 12.8 µM)
CCCCC/C=C/C=C/[C@@H](O)C/C=C/C=C/C(=O)O[C@@H]1[C@@H](O)[C@H](c2c(O)cc(O)cc2CO)O[C@H](CO)[C@H]1O[C@@H]1O[C@H](COC(=O)c2ccc(OCCCCCCCC)cc2)[C@H](O)[C@H](O)[C@H]1O[C@@H]1O[C@H](CO)[C@H](O)[C@H](O)[C@H]1O [Example 18] | 1.56 µg/mL (≈ 1.41 µM) | 3.12 µg/mL (≈ 2.82 µM) | 1.56 µg/mL (≈ 1.41 µM) | 0.78 µg/mL (≈ 0.706 µM) | 1.56 µg/mL (≈ 1.41 µM)
CCCCC/C=C/C=C/[C@@H](O)C/C=C/C=C/C(=O)O[C@@H]1[C@@H](O)[C@H](c2c(O)cc(O)cc2CO)O[C@H](CO)[C@H]1O[C@@H]1O[C@H](COC(=O)c2ccc(-c3ccc(OCc4ccccc4)cc3)cc2)[C@H](O)[C@H](O)[C@H]1O[C@@H]1O[C@H](CO)[C@H](O)[C@H](O)[C@H]1O [Example 37] | 1.56 µg/mL (≈ 1.35 µM) | 1.56 µg/mL (≈ 1.35 µM) | 3.12 µg/mL (≈ 2.69 µM) | 1.56 µg/mL (≈ 1.35 µM) | 3.12 µg/mL (≈ 2.69 µM)
CCCCC/C=C/C=C/[C@@H](O)C/C=C/C=C/C(=O)O[C@@H]1[C@@H](O)[C@H](c2c(O)cc(O)cc2CO)O[C@H](CO)[C@H]1O[C@@H]1O[C@H](COC(=O)c2ccc(-c3ccc(OCCCCCCCC)cc3)cc2)[C@H](O)[C@H](O)[C@H]1O[C@@H]1O[C@H](CO)[C@H](O)[C@H](O)[C@H]1O [Example 38] | 25 µg/mL (≈ 21.2 µM) | 25 µg/mL (≈ 21.2 µM) | 50 µg/mL (≈ 42.3 µM) | 12.5 µg/mL (≈ 10.6 µM) | 25 µg/mL (≈ 21.2 µM)
